ChEMBL document CHEMBL1201862, “PubChem BioAssay data set” (2004)
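These data come from cells grown in 96-well plates and exposed to compound for 48 hours at five concentrations. At the GI50, growth is halved.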 Active and inactive are the calls of the source. Rule as the data show it: active = GI50 up to about 1.1 µM and inactive = higher.

Experiments:
Assay in all cases: NCI tumour cell line growth inhibition, 48 h
HOP-92 = test system: HOP-92
EKVX = test system: EKVX
SNB-19 = test system: SNB-19
KM12 = test system: KM12
RXF 393 = test system: RXF 393
SNB-75 = test system: SNB-75
HT-29 = test system: HT-29
OVCAR-3 = test system: OVCAR-3
SN12C = test system: SN12C
SK-OV-3 = test system: SK-OV-3
ACHN = test system: ACHN
SK-MEL-5 = test system: SK-MEL-5
OVCAR-4 = test system: OVCAR-4
HCT-116 = test system: HCT-116
COLO 205 = test system: COLO 205
786-0 = test system: 786-0
CAKI-1 = test system: CAKI-1
NCI-H522 = test system: NCI-H522
MCF7 = test system: MCF7

Measured: GI50

C=CCCC1(C)CCCNC1=S (centres undefined)
inactive: HOP-92 > 100 µM | EKVX > 100 µM | SNB-19 > 100 µM | KM12 > 100 µM | RXF 393 > 100 µM | SNB-75 > 100 µM | HT-29 > 100 µM | OVCAR-3 > 100 µM | SN12C > 100 µM | SK-OV-3 > 100 µM | ACHN > 100 µM | SK-MEL-5 > 100 µM | OVCAR-4 > 100 µM | HCT-116 > 100 µM | COLO 205 37.7 µM

COc1ccc(CC#N)c(OCc2ccccc2)c1
inactive: EKVX 30.7 µM | SNB-19 40.6 µM | KM12 61.5 µM | 786-0 > 100 µM | CAKI-1 > 100 µM | NCI-H522 38.9 µM | OVCAR-3 80.5 µM | SN12C 51.5 µM | ACHN 27 µM | SK-MEL-5 19.7 µM | OVCAR-4 71.6 µM | HCT-116 33.2 µM | COLO 205 40.4 µM

O=C(N=C1N(c2ccccc2)C(=O)C(=O)N1c1ccccc1)c1ccccc1
inactive: HOP-92 2.99 µM | EKVX 12.7 µM | SNB-19 13.3 µM | KM12 17.3 µM | 786-0 3.68 µM | CAKI-1 13.5 µM | RXF 393 3.58 µM | SNB-75 11.3 µM | NCI-H522 1.66 µM | HT-29 13.7 µM | SN12C 10.6 µM | SK-OV-3 4.68 µM | ACHN 3.78 µM | SK-MEL-5 14.9 µM | OVCAR-4 2.95 µM | HCT-116 3.99 µM | COLO 205 13.9 µM

COC(=O)C1(N2CCOCC2)CCC([C@@H](c2ccccc2)C(C)[N+](=O)[O-])C1 (some centres undefined)
inactive: EKVX > 100 µM | SNB-19 > 100 µM | KM12 > 100 µM | 786-0 75.9 µM | SNB-75 34.5 µM | HT-29 > 100 µM | OVCAR-3 18.7 µM | MCF7 21.9 µM | SN12C > 100 µM | SK-OV-3 > 100 µM | ACHN > 100 µM | SK-MEL-5 > 100 µM | OVCAR-4 55.5 µM | COLO 205 64.6 µM

c1ccc(Sc2nc(Sc3ccccc3)nc(Sc3ccccc3)n2)cc1
inactive: EKVX 35 µM | SNB-19 31.8 µM | KM12 13.9 µM | CAKI-1 38.9 µM | RXF 393 61.7 µM | NCI-H522 97.1 µM | HT-29 38.9 µM | OVCAR-3 13.3 µM | MCF7 26.5 µM | SN12C > 100 µM | SK-OV-3 > 100 µM | ACHN 29.8 µM | SK-MEL-5 > 100 µM | OVCAR-4 55 µM | HCT-116 60.1 µM | COLO 205 18.6 µM

COc1ccc(/C=C2\CCC(C)C3C2=NN(c2ccccc2)C3c2ccc(OC)c(OC)c2)cc1OC (centres undefined)
inactive: EKVX 1.74 µM | SNB-19 8 µM | KM12 2.46 µM | 786-0 3.48 µM | CAKI-1 3.94 µM | RXF 393 3.23 µM | SNB-75 1.18 µM | HT-29 3.54 µM | OVCAR-3 5.04 µM | MCF7 3.21 µM | SN12C 4.1 µM | SK-OV-3 4.23 µM | ACHN 3.84 µM | SK-MEL-5 3.61 µM | HCT-116 2.07 µM | COLO 205 4.22 µM

CCN(CC)CCCCC1CCN(CC(=O)N2c3cc(Cl)ccc3NC(=O)CC2C)CC1 (centres undefined)
inactive: HOP-92 > 100 µM | SNB-19 > 100 µM | 786-0 > 100 µM | CAKI-1 > 100 µM | HT-29 > 100 µM | OVCAR-3 > 100 µM | SN12C > 100 µM | SK-OV-3 > 100 µM | ACHN > 100 µM | SK-MEL-5 > 100 µM | OVCAR-4 > 100 µM | HCT-116 > 100 µM | COLO 205 > 100 µM
